The text below walks through data of patent US20150176022A1, “HERBICIDE-RESISTANT SUNFLOWER PLANTS, POLYNUCLEOTIDES ENCODING HERBICIDE=RESISTANT ACETO HYDROXY ACID SYNTHASE LARGE SUBUNIT PROTEINS, AND METHODS OF USE” (priority 2013, published 2015).

For one assay, the system named is AHAS. In words: AHAS activity analysis, inhibition by herbicide (Example 5). The assay is classed as biochemical, Helianthus annuus. Conditions: AHAS of S4897 versus a Clearfield sunflower and a conventional non Clearfield variety; higher concentration of imazamox (FIG. 7). As for the experimental part:
AHAS activity analysis was also conducted by selecting actively growing young leaves from plants that were not sprayed with herbicide at approximately four weeks after planting.

The next assay has as its system S4897 sunflower plants. In words: Greenhouse spray treatment with imazamox (FIG. 3, 4). Conditions: S4897 versus IMISUN-1 and wild-type; imazamox 100 or 200 g ai/ha; evaluated 17 days after application. The format is in vivo, Helianthus annuus. Here is the method:
(§1) The S4897 and IMISUN-1 sunflower plants were spray-treated with imazamox at rate of 200 g ai/ha. […] The photograph was taken a few days after the plants were spray treated.
(§2) FIG. 4 is graphical illustration of herbicide injury in a greenhouse test following the spray treatment of IMISUN-1, wild-type, and S4897 sunflower plants with imazamox at either 100 (light columns) or 200 g ai/ha (dark columns). […] Herbicide injury was evaluated 17 days after the imazamox application.

For assay [1], the system named is wild-type sunflower plants. Described as above. Conditions: wild-type control plants, imazamox at either 100 or 200 g ai/ha. The format is in vivo, Helianthus annuus. As for the experimental part: as §1, §2
For assay [2], the system named is Clearfield-Sunflower variety C. In words: Greenhouse spray test, injury rating (Example 5). The format is in vivo, Helianthus annuus. Conditions: 14 DAT, scale 0=no injury to 9=dead plant. From the text:
(§3) Sunflower lines S4897, Clearfield® sunflower varieties A, B, C and a conventional non-Clearfield variety were sprayed with three rates of imazamox (Raptor™), 100, 200 and 300 gm ai/ha plus 0.5% Sun It II and two rates of imazapyr (Arsenal™) 160 and 360 gm ai/ha plus 0.5% Sun It II when the plants were at the two to three leaf stage. Ratings were taken at 14 days after application (DAT) for injury. Injury was rated on a scale from 0 to 9 where 0=no injury to 9=dead plant. Twelve plants were sprayed per herbicide/rate treatment. Statistical analysis was conducted with STATGRAPHICS Plus 5.0 by using ANOVA and LSD procedures.
(§4) After plants were sprayed, it was realized that a height difference between S4897 and other sunflower varieties would have impacted the actual herbicide dose that was delivered. The spray boom height had been calibrated against S4897 and since the other varieties were taller and closer to the boom they would have received a greater dose of herbicide. Rates were recalibrated for the other varieties to determine the approximate dose they would have received. Assessments were made as presented in Table 2 since it was not possible to make a direct rate comparison due to the effect of the height. For example injury scores were compare for S4897 treated imazamox rate 100 gm ai/ha to the other varieties treated at 75 gm ai/ha. The treatment dose of 300 gm ai/ha for line S4897 was equivalent to the treatment of 200 gm ai/ha for the other varieties, which […].

Assay [3] relates to Conventional non-Clearfield sunflower variety. Put plainly: Greenhouse spray test, injury rating (Example 5). The format is in vivo, Helianthus annuus. Conditions: 14 DAT, scale 0=no injury to 9=dead plant.
Text: as §3, §4

For assay [4], the system named is Clearfield-Sunflower variety B. In words: Greenhouse spray test, injury rating (Example 5). The assay is classed as in vivo, Helianthus annuus. Conditions: 14 DAT, scale 0=no injury to 9=dead plant.
Text: as §3, §4

For a further assay, the system named is Sunflower line S4897. In words: Greenhouse spray test, injury rating (Example 5). The format is in vivo, Helianthus annuus. Conditions: 14 DAT, scale 0=no injury to 9=dead plant.
Text: as §3, §4

Assay [5] deals with Clearfield-Sunflower variety A. In words: Greenhouse spray test, injury rating (Example 5). Conditions: 14 DAT, scale 0=no injury to 9=dead plant. The assay is classed as in vivo, Helianthus annuus.
Text: as §3, §4

The next assay relates to S4897 plants. In words: Field trials in Argentina, resistance to imazapic (Example 4). Conditions: S4897 versus IMISUN-1 (Ala190-to-Val), single row plots, no data presented. The format is in vivo, Helianthus annuus. As for the experimental part: In field trials in Argentina, S4897 plants were tested for resistance to imazapic. […] This trial had single row plots and was treated on a windy day, so the actual herbicide dose reaching the plants was likely less than was applied.

Where [6] appears, read: Imazamox 300 gm ai/ha (dose received).

As for `COCc1cnc(C2=NC(C)(C(C)C)C(=O)N2)c(C(=O)O)c1` (stereo not shown) [imazamox], the “inhibition of AHAS activity” value in the assay on AHAS is “less inhibition at the higher concentration of imazamox as compared to a Clearfield® sunflower and conventional non Clearfield variety”. Also, the “herbicide injury (resistance or tolerance)” value in the assay on S4897 sunflower plants was “significantly greater resistance or tolerance”. Also, the “survival following spray treatment” value in assay [1] was “did not survive”. Also, the Injury in [2] (Imazamox 75 gm ai/ha) was found to be 1.8 b; in assay [2] (Imazamox 150 gm ai/ha) it was 2.9 b; in [2] (setting [6]), 4.6 b; in [3] (Imazamox 75 gm ai/ha), 7.2 days; in assay [3] (Imazamox 150 gm ai/ha) it was 8.2 days; in assay [3] (setting [6]) it was 8.7 e. The Injury in assay [4] (Imazamox 75 gm ai/ha) was 1.9 b; in assay [4] (Imazamox 150 gm ai/ha), 4.8 c; in assay [4] (setting [6]), 5.3 c; in the assay on Sunflower line S4897 (Imazamox 100 gm ai/ha) it was 0.5 a; with Sunflower line S4897 (Imazamox 200 gm ai/ha), “little to no injury”; with Sunflower line S4897 (Imazamox 200 gm ai/ha, listed as Imazamox), 0.8 a. The Injury result with Sunflower line S4897 (Imazamox 300 gm ai/ha) is “very little injury”; in the assay on Sunflower line S4897 (Imazamox 300 gm ai/ha, listed as Imazamox), 0.8 a; in assay [5] (Imazamox 75 gm ai/ha) it was 4.3 c; in [5] (Imazamox 150 gm ai/ha), “significantly injured and had stopped growing”; in assay [5] (Imazamox 150 gm ai/ha, listed as Imazamox) it was 4.6 c; in assay [5] (setting [6]) it was 6.5 days.
Consider `Cc1cnc(C2=NC(=O)C(C)(C(C)C)N2)c(C(=O)O)c1` (stereo not shown) [imazapic], for which, in the assay on S4897 plants, the “resistance (tolerance) to imazapic” value is on record as “clearly superior to the IMISUN-1”.
